Assays:
HLA-A3.2 = biological target: T1, HLA-A3.2 (Homo sapiens, UniProt P04439); assay type: binding; conditions: HLA-A3.2; IC50 of standard divided by IC50 of tested peptide; cysteines synthesized as alanine
T1 construct: endogenous in cells; host or cells: EBV transformed cell line GM3107 (protein purified from NP40 lysate)
Text: (§1) The method utilizes purified class I molecules and radiolabeled synthetic probes based on consensus peptides. Competitor peptides tested for their binding to the class I molecules compete for this binding with the radiolabeled consensus peptides. The HLA-A1, A2.1, A3.2, A11.2, and A24 molecules were isolated from the following cell lines, respectively: the EBV (Eppstein Barr Virus) transformed cell line Steinlin, the EBV transformed cell line JY, the EBV transformed cell line GM3107, the cell line BVR and the EBV transformed cell line KT3. After large scale culture, cells were lysed in NP40 (Fluka Biochemika, Buchs, Switzerland) and the lysate was passed over two pre-columns of inactivated sepharose CL 4B and Prot A Sepharose. Class I molecules were then purified from the cell lysate by affinity chromatography using Prot A Sepharose beads conjugated with B2.23.2 (anti-HLA-B and HLA-C) and anti-human HLA. The lysate was first depleted of B and C molecules by repeated passage over the B2.23.2 column.
(§2) After two days at 23° C. the percent of MHC-bound radioactivity was measured by size exclusion chromatography on a TSK2000 gel filtration as described by Sette et al. (1992).
(§3) Probe peptides were iodinated by using the Chloramine T method described by Buus et al. (1987). The sequences of the probe peptides used for the aforementioned HLA molecules were […] (SEQ ID NO:76) for A1, […] (SEQ ID NO:77) for A2.1, […] (SEQ ID NO:78) for A3.2, […] (SEQ ID NO:79) for A11.2, and […] (SEQ ID NO:80) for A24.
(§4) Each competitor peptide was tested in two to four completely independent experiments. Since cysteine containing peptides are susceptible to (air) oxidation during synthesis and handling, these peptides were synthesized with an alanine instead of a cysteine.

HLA-A11.2 = assay: Immunochemical peptide-MHC binding assay, purified HLA-A11.2, radiolabeled probe […]; parameters: species or system human; conditions: IC50 of standard divided by IC50 of tested peptide, cysteines synthesized as alanine
Text: as §1, §2, §3, §4

HLA-A1 = biological target: T2, HLA-A1 (Homo sapiens, UniProt P04439, A114D/A174V/A182V/D101N/E190D/Q94H/R68K/S129P/V100A/V91M/W191G); assay: Immunochemical peptide-MHC binding assay, purified HLA-A1, radiolabeled probe YLEPAIAKY; conditions: IC50 of standard divided by IC50 of tested peptide, cysteines synthesized as alanine
T2 construct: endogenous in cells; host or cells: EBV transformed cell line Steinlin (protein purified from NP40 lysate)
Text: as §1, §2, §3, §4

HLA-A24 = assay: Immunochemical peptide-MHC binding assay, purified HLA-A24, radiolabeled probe AYIDNYNKF; parameters: species or system human; conditions: IC50 of standard divided by IC50 of tested peptide, cysteines synthesized as alanine
Text: as §1, §2, §3, §4

HLA-A2.1 = biological target: T3, HLA-A2.1 (Homo sapiens, UniProt P04439, D140Y/D185E/D98H/E176V/E277Q/G131W/G231S/I119V/I121R/I166T/I218V/L300P/L318F/N151K/N90K/P208A/P217A/Q86G/Q94H/R138H/R169H/T345S); assay type: cell-based; conditions: HPV16 peptides, 200 μg/ml peptide, 16 hours, 174CEM.T2 cells; for FI (Fluorescence Index): background set on 0, binding positive when ≧0.5
T3 construct: endogenous in cells; host or cells: 174CEM.T2
Protocol: Of all peptides a dilution of 1 mg/ml in 0.9% NaCl was made.
174CEM.T2 cells were cultured in Iscovel's modified Dulbecco's medium (Biochrom KG Seromed Berlin, Germany: F0465) supplemented with 100 IU/ml penicillin (Biocades Pharma, Leiderdorp, The Netherlands), 100 μg/ml kanamycin (Sigma St. Louis, USA:K-0254), 2 mM glutamine (ICN Biomedicals Inc. Costa Mesa, Calif., USA:15-801-55) and 10% fetal calf serum (FCS, Hyclone Laboratories Inc. Logan, Utah, USA:A-1115-L). Cells were cultured at a density of 2.5×10^5/ml during 3 days at 37° C., 5% CO2 in humified air.
174CEM.T2 cells were washed twice in culture medium without FCS and put in serum-free culture medium to a density of 2×10^6 cells/ml. Of this suspension 40 μl was put into a V bottomed 96 well plate (Greiner GmbH, Frickenhausen, Germany: 651101) together with 10 μl of the individual peptide dilutions (of 1 mg/ml). The end concentration is 200 μg/ml peptide with 8×10^4 174CEM.T2 cells. This solution was gently agitated for 3 minutes after which an incubation time of 16 hours at 37° C., 5% CO2 in humified air took place. Then cells were washed once with 100 μl 0.9% NaCl, 0.5% bovine serum albumin (Sigma St. Louis, USA: A-7409), 0.02% NaN3 (Merck Darmstadt, Germany:822335). After a centrifuge round of 1200 rpm the pellet was resuspended in 50 μl of saturating amounts of HLA-A2.1 specific mouse monoclonal antibody BB7.2 for 30 minutes at 4° C. Then cells were washed twice and incubated for 30 minutes with F(ab)2 fragments of goat anti-mouse IgG that had been conjugated with […] (Tago Inc Burlingame, Calif., USA: 4350) in a dilution of 1:40 and a total volume of 25 μl.
After the last incubation, cells were washed twice and fluorescence was measured at 488 nanometer on a FACScan flow-cytometer (Becton Dickinson, Franklin Lakes, N.J., USA).
The 174CEM.T2 cell line expresses “empty” and unstable HLA-A2.1 molecules that can be stabilized when a peptide is binding to the peptide presenting groove of these molecules. […] This leads to an increase in cell surface expression of the HLA-A2.1 molecule.
With background fluorescence level (without adding peptides) set on a Fluorescence Index level of 0, binding of a peptide was regarded positive when the level of fluorescence was ≧0.5.

T1 sequence (P04439 25-365): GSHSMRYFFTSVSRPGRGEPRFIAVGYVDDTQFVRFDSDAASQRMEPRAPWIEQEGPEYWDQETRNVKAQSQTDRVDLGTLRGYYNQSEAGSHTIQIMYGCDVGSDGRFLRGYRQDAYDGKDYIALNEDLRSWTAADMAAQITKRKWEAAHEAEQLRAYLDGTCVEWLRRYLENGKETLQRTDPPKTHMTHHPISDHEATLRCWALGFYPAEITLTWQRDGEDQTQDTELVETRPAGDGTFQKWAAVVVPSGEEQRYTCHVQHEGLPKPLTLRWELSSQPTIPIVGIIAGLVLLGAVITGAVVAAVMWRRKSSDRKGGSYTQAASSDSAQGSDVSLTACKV
T1 sequence (P61769 21-119, further chain): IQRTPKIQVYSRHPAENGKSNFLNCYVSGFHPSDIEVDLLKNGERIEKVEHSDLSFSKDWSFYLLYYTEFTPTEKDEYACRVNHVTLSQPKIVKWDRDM

Sequence | binding ratio to standard (HLA-A3.2) | binding ratio to standard (HLA-A11.2) | binding ratio to standard (HLA-A24) | also measured
ISEYRHYCY [residues 80-88 of HPV16 protein E6] | 0.0064 | 0.4300 | – | –
CCKCDSTLR [residues 58-66 of HPV16 protein E7] | 0.0016 | 0.0110 | – | –
HVDIRTLED [residues 73-81 of HPV16 protein E7] | – | – | – | binding ratio to standard (HLA-A1): 0.014
SCCRSSRTR [residues 145-153 of HPV16 protein E6] | 0.0200 | 0.0330 | – | –
RAHYNIVTF [residues 49-57 of HPV16 protein E7] | – | – | 0.0670 | –
CMSCCRSSR [residues 143-151 of HPV16 protein E6] | 0.1800 | 0.0084 | – | –
AVCDKCLKF [residues 68-76 of HPV16 protein E6] | 0.0056 | 0.0037 | – | –
YAVCDKCLK [residues 67-75 of HPV16 protein E6] | 0.0012 | 0.0074 | – | –
EYRHYCYSL [residues 82-90 of HPV16 protein E6] | – | – | 0.0460 | –
WTGRCMSCC [residues 139-147 of HPV16 protein E6] | – | – | – | binding ratio to standard (HLA-A1): 0.020
VYDFAFRDL [residues 49-57 of HPV16 protein E6] | – | – | 0.0610 | –
CYSLYGTTL [residues 87-95 of HPV16 protein E6] | – | – | 0.1200 | –
VYCKQQLLR [residues 38-46 of HPV16 protein E6] | 0.0012 | 0.0022 | 0.0011 | –
MHQKRTAMF [residues 1-9 of HPV16 protein E6] | – | – | 0.0049 | –
KISEYRHYC [HPV16 peptide 9, residues 79-87 of HPV16 protein E6] | 0.0044 | 0.0076 | – | MF (mean HLA-A2.1 fluorescence) (HLA-A2.1): 211.7; FI (Fluorescence Index) (HLA-A2.1): 2.2
KCLKFYSKI [residues 72-80 of HPV16 protein E6] | – | – | 0.1100 | –

Sequence | binding ratio to standard (HLA-A3.2) | binding ratio to standard (HLA-A11.2) | binding ratio to standard (HLA-A24) | also measured
IILECVYCK [residues 33-41 of HPV16 protein E6] | 1.5000 | 6.7000 | – | –
QQLLRREVY [residues 42-50 of HPV16 protein E6] | 0.0058 | 0.0084 | – | –
LIRCINCQK [residues 107-115 of HPV16 protein E6] | 3.7000 | 0.0120 | – | –
MSCCRSSRT | – | – | – | binding ratio to standard (HLA-A1): 0.019
TTDLYCYEQ [residues 19-27 of HPV16 protein E7] | – | – | – | binding ratio to standard (HLA-A1): 0.023
LLRREVYDF [residues 44-52 of HPV16 protein E6] | – | – | 0.0023 | –
VCDKCLKFY [residues 69-77 of HPV16 protein E6] | 0.0025 | 0.0030 | – | –
HYCYSLYGT [residues 85-93 of HPV16 protein E6] | – | – | 0.0037 | –
YRDGNPYAV [residues 61-69 of HPV16 protein E6] | – | – | – | binding ratio to standard (HLA-A1): 0.008
IVYRDGNPY [residues 59-67 of HPV16 protein E6] | 3.0000 | 0.4700 | – | –
EIDGPAGQA [residues 37-45 of HPV16 protein E7] | – | – | – | binding ratio to standard (HLA-A1): 0.025
RFHNIRGRW [residues 131-139 of HPV16 protein E6] | – | – | 0.1000 | –
PYAVCDKCL [residues 66-74 of HPV16 protein E6] | – | – | 0.0055 | –
HYNIVTFCC [residues 51-59 of HPV16 protein E7] | 0.0260 | 0.0010 | – | –
CVYCKQQLL [HPV16 peptide 8, residues 37-45 of HPV16 protein E6] | 0.0320 | 0.0450 | – | MF (mean HLA-A2.1 fluorescence) (HLA-A2.1): 195.0; FI (Fluorescence Index) (HLA-A2.1): 2.0

Source: US7364741B1, “Peptides of human Papilloma virus for use in human T cell response inducing compositions” (priority 1992, dated 2008)
